# Assay results published in patent US20080161246A1, “Cytochrome P450 Oxidase Inhibitors and Uses Thereof” (ABBOTT LABORATORIES, priority 2006, published 2008).
# Molecular target: T1, human microsomes containing CYP3A4 (Homo sapiens, UniProt P08684)
# T1 construct: human microsomes containing CYP3A4; from tissue
# Assay: Protection of lopinavir from metabolism by human microsomes containing CYP3A4
# Format: biochemical
# Conditions: unmetabolized lopinavir after incubation with human microsomes containing CYP3A4; for % LPV Remaining (0.4 μM): compound at 0.4 μM; for % LPV Remaining (4 μM): compound at 4 μM
# Protocol: The pharmacokinetics boosting effects of the compounds of the present invention were evaluated by measuring the compounds' protective effects on the metabolism of lopinavir, an HIV protease inhibitor. Lopinavir were mixed with human microsomes containing CYP3A4 in the presence of a compound of the invention. […] Significant pharmacokinetics boosting effects were also observed for some compounds at 0.4 μM (“% LPV Remaining (0.4 μM)”).
# T1 sequence (P08684 whole entry): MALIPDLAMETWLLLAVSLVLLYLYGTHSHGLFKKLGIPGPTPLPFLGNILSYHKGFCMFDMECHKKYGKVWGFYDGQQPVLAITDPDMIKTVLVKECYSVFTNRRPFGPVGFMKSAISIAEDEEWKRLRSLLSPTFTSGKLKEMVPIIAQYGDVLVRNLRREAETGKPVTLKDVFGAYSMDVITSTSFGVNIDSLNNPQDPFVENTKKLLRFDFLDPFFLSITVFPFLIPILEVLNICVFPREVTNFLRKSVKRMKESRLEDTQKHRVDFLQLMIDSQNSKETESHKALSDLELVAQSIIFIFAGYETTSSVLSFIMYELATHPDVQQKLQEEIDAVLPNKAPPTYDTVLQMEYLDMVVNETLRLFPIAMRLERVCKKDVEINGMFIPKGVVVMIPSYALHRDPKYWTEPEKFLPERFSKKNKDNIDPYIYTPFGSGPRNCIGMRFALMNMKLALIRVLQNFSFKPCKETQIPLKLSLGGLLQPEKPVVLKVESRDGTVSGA
Structure (SMILES),% LPV Remaining (0.4 μM) [%],% LPV Remaining (4 μM) [%]
"O=C(N[C@@H](Cc1ccccc1)C(=O)N(Cc1ccccc1)Cc1ccccc1)OCc1cncs1 [N,N-dibenzyl-N-[(1,3-thiazol-5-ylmethoxy)carbonyl]-L-phenylalaninamide]",1.9,78
"CC(C)CN(CC(C)C)C(=O)[C@H](Cc1ccccc1)NC(=O)OCc1cncs1 [N,N-diisobutyl-N-[(1,3-thiazol-5-ylmethoxy)carbonyl]-L-phenylalaninamide]",2,77
"O=C(NC(Cc1ccccc1)C(=O)N(CCc1ccccc1)Cc1ccccc1)OCc1cncs1 [N-benzyl-N-(2-phenylethyl)-N-[(1,3-thiazol-5-ylmethoxy)carbonyl]-L-phenylalaninamide]",1.8,83
